According to PubChem BioAssay AID1259407 (Chemical Carcinogenesis Research Information System (CCRIS), 2018):
Activity calls are given as the source filed them. No rule for the calls is given here.

Tested on: CCRIS mutagenicity, Ames/micronucleus/aberration tests
Assay: CCRIS mutagenicity studies
[1] = Test System: AMES SALMONELLA TYPHIMURIUM, Strain/Indicator: TA98, Metabolic Activation: HAMSTER, LIVER, S-9, AROCLOR 1254 (30%), Method: PREINCUBATION
[2] = Test System: AMES SALMONELLA TYPHIMURIUM, Strain/Indicator: TA98, Metabolic Activation: NONE, Method: PREINCUBATION
[3] = Test System: AMES SALMONELLA TYPHIMURIUM, Strain/Indicator: TA98, Metabolic Activation: RAT, LIVER, S-9, AROCLOR 1254 (30%), Method: PREINCUBATION
[4] = Test System: AMES SALMONELLA TYPHIMURIUM, Strain/Indicator: TA100, Metabolic Activation: HAMSTER, LIVER, S-9, AROCLOR 1254 (30%), Method: PREINCUBATION
[5] = Test System: AMES SALMONELLA TYPHIMURIUM, Strain/Indicator: TA100, Metabolic Activation: NONE, Method: PREINCUBATION
[6] = Test System: AMES SALMONELLA TYPHIMURIUM, Strain/Indicator: TA1535, Metabolic Activation: NONE, Method: PREINCUBATION
[7] = Test System: AMES SALMONELLA TYPHIMURIUM, Strain/Indicator: TA1535, Metabolic Activation: RAT, LIVER, S-9, AROCLOR 1254 (30%), Method: PREINCUBATION

For `Clc1cccc2ccccc12`, the mutagenic call (Test System: AMES SALMONELLA TYPHIMURIUM, Strain/Indicator: TA97, Metabolic Activation: HAMSTER, LIVER, S-9, AROCLOR 1254 (10%), Method: PREINCUBATION) was “inactive; negative”, the mutagenic call (Test System: AMES SALMONELLA TYPHIMURIUM, Strain/Indicator: TA97, Metabolic Activation: HAMSTER, LIVER, S-9, AROCLOR 1254 (30%), Method: PREINCUBATION) was “active; positive” and the mutagenic call (Test System: AMES SALMONELLA TYPHIMURIUM, Strain/Indicator: TA97, Metabolic Activation: NONE, Method: PREINCUBATION) was “inactive; negative”. The mutagenic call (Test System: AMES SALMONELLA TYPHIMURIUM, Strain/Indicator: TA97, Metabolic Activation: RAT, LIVER, S-9, AROCLOR 1254 (30%), Method: PREINCUBATION) was “inactive; negative”, the mutagenic call [1] was “inactive; negative” and the mutagenic call [2] was “inactive; negative”. For the same compound, the mutagenic call (Test System: AMES SALMONELLA TYPHIMURIUM, Strain/Indicator: TA98, Metabolic Activation: NONE, Method: STANDARD PLATE) was “inactive; negative”, the mutagenic call [3] was “inactive; negative” and the mutagenic call (Test System: AMES SALMONELLA TYPHIMURIUM, Strain/Indicator: TA98, Metabolic Activation: RAT, LIVER, S-9, AROCLOR 1254, Method: STANDARD PLATE) was “inactive; negative”. For the same compound, the mutagenic call (Test System: AMES SALMONELLA TYPHIMURIUM, Strain/Indicator: TA100, Metabolic Activation: HAMSTER, LIVER, S-9, AROCLOR 1254 (10%), Method: PREINCUBATION) was “inactive; negative”, the mutagenic call [4] was “active; positive” and the mutagenic call [5] was “inactive; negative”. For the same compound, the mutagenic call (Test System: AMES SALMONELLA TYPHIMURIUM, Strain/Indicator: TA100, Metabolic Activation: NONE, Method: STANDARD PLATE) was “inactive; negative”, the mutagenic call (Test System: AMES SALMONELLA TYPHIMURIUM, Strain/Indicator: TA100, Metabolic Activation: RAT, LIVER, S-9, AROCLOR 1254 (10 OR 30%), Method: PREINCUBATION) was “inactive; negative” and the mutagenic call (Test System: AMES SALMONELLA TYPHIMURIUM, Strain/Indicator: TA100, Metabolic Activation: RAT, LIVER, S-9, AROCLOR 1254, Method: STANDARD PLATE) was “inactive; negative”. For the same compound, the mutagenic call (Test System: AMES SALMONELLA TYPHIMURIUM, Strain/Indicator: TA1535, Metabolic Activation: HAMSTER, LIVER, S-9, AROCLOR 1254 (10 OR 30%), Method: PREINCUBATION) was “inactive; negative”, the mutagenic call [6] was “inactive; negative” and the mutagenic call [7] was “inactive; negative”.
`C[C@@H]1O[C@@H](O[C@H]2C[C@@H](O)[C@]3(CO)[C@H]4[C@H](O)C[C@]5(C)[C@@H](C6=CC(=O)OC6)CC[C@]5(O)[C@@H]4CC[C@]3(O)C2)[C@H](O)[C@H](O)[C@H]1O` was tested, and the mutagenic call (Test System: MOUSE LYMPHOMA, Strain/Indicator: L5178Y (TK+/TK-), Metabolic Activation: NONE, Method: SUSPENSION/PLATE) was “active; positive”.
`CC(C)(C)c1ccc(OCC2CO2)cc1` (stereo unspecified) was tested, and the mutagenic call [1] was “inactive; negative”, the mutagenic call [2] was “inactive; negative” and the mutagenic call [3] was “inactive; negative”. For the same compound, the mutagenic call [4] was “inactive; negative”, the mutagenic call [5] was “active; positive” and the mutagenic call (Test System: AMES SALMONELLA TYPHIMURIUM, Strain/Indicator: TA100, Metabolic Activation: RAT, LIVER, S-9, AROCLOR 1254 (30%), Method: PREINCUBATION) was “inactive; negative”. The mutagenic call (Test System: AMES SALMONELLA TYPHIMURIUM, Strain/Indicator: TA1535, Metabolic Activation: HAMSTER, LIVER, S-9, AROCLOR 1254 (30%), Method: PREINCUBATION) was “inactive; negative”, the mutagenic call [6] was “inactive; negative” and the mutagenic call [7] was “inactive; negative”. For the same compound, the mutagenic call (Test System: AMES SALMONELLA TYPHIMURIUM, Strain/Indicator: TA1537, Metabolic Activation: HAMSTER, LIVER, S-9, AROCLOR 1254 (30%), Method: PREINCUBATION) was “inactive; negative”, the mutagenic call (Test System: AMES SALMONELLA TYPHIMURIUM, Strain/Indicator: TA1537, Metabolic Activation: NONE, Method: PREINCUBATION) was “inactive; negative” and the mutagenic call (Test System: AMES SALMONELLA TYPHIMURIUM, Strain/Indicator: TA1537, Metabolic Activation: RAT, LIVER, S-9, AROCLOR 1254 (30%), Method: PREINCUBATION) was “inactive; negative”.
